Test results from patent publication US8586125B2, “Thermal treatment of an implantable medical device” (Advanced Cardiovascular Systems, Inc., priority 1999, dated 2013).
Several values for one entry are separate records, joined by “and”; a condition that tells them apart may be missing. Equal entries are not always repeated. Where two headings read alike, the source gives them in different places. Each block holds one compound with its values, some of them ahead of it. Starred links: 1 amine or outer side, 2 acyl side, 3 side chain; linkers in the order of their positions; H or OH if unused. Positions of bridges follow the written chain, without caps; N, C: chain ends. Non-standard residues stand in square brackets, D forms with d. Residues, ends and D or L forms follow the SMILES beside them. Chains are numbered I, II in the order given. Actinocin(9to1) = Cc1c2oc3c(C)ccc(C(=O)[*:1])c3nc-2c(C(=O)[*:2])c(N)c1=O; NMeV = CN[C@H](C(=O)O)C(C)C; Sar = CNCC(=O)O

Columns and labels:
[1] = 24 hour elution of vinblastine from EVOH coated stents in phosphated saline solution, HPLC; format: physicochemical; conditions: for Total microgram Released / microgram Release per Hour / microgram Released: Unsterilized stent
Experimental: Multi-Link™ stents were cleaned by placement in an ultrasonic bath of isopropyl alcohol solution for 10 minutes. The stents were dried and plasma cleaned in a plasma chamber. An EVOH solution was made with 1 gram of EVOH and 7 grams of DMSO, making an EVOH:DMSO ratio of 1:7. Vinblastine was added to the 1:7 EVOH:DMSO solution. Vinblastine constituted 2.5% by weight of the total weight of the solution. The solution was vortexed and placed in a tube. The cleaned Multi-Link™ stents were attached to mandrel wires and dipped into the solution. The coated stents were passed over a hot plate, for about 3-5 seconds, with a temperature setting of about 60° C. The coated stents were cured for 6 hours in an air box then placed in a vacuum oven at 60° C. for 24 hours. The above process was repeated twice, having a total of three layers. The average weight of the coating was 0.00005 gram, with an estimated vinblastine concentration of 12 microgram per stent. Some of the stents were sterilized by electron beam radiation. The sterilized and unsterilized vinblastine coated stents were tested for a 24 hour elution period by placing one sterilized and one unsterilized stent in 5 ml of phosphated saline solution (pH 7.4) at room temperature with rotational motion. The amount of vinblastine eluted was evaluated by High Performance Liquid Chromatography (HPLC) analysis. The results of this test are given below and plotted in FIG. 7.

[2] = test system: Porcine Coronary Artery Model; experiment: Reduction in restenosis in the porcine coronary artery model, drug delivered with microporous balloon catheter; format: in vivo, Domestic swine; conditions: for Percent Diameter Stenosis (QCA): 28-day endpoint; for Percent Stenosis (IEL area-lumen area)/IEL area / Residual Lumen (Lumen area)/IEL area: histomorphometric
Experimental: Porcine coronary models were used to assess the degree of the inhibition of neointimal formation in the coronary arteries of a porcine stent injury model by actinomycin D, delivered with a microporous balloon catheter (1×10^6 pores/mm^2 with sizes ranging from 0.2-0.8 micron).
The preclinical animal testing was performed in accordance with the NIH Guide for Care and Use of Laboratory Animals. Domestic swine were utilized to evaluate effect of the drug on the inhibition of the neointimal formation. Each testing procedure, excluding the angiographic analysis at the follow-up endpoints, was conducted using sterile techniques. During the study procedure, the activated clotting time (ACT) was monitored regularly to ensure appropriate anticoagulation. Base line blood samples were collected for each animal before initiation of the procedure. Quantitative coronary angiographic analysis (QCA) and intravascular ultrasound (IVUS) analysis was used for vessel size assessment.
The vessels at the sites of the delivery were denuded by inflation of the PTCA balloons to 1:1 balloon to artery ratio and moving the balloons back and forth 5 times. The drug was delivered to the denuded sites at 3.5 atm (3.61 Kg/sq cm) for 2 minutes using the microporous balloon catheters before stent deployment. The average volume of delivery was about 3.3+/−1.2 ml. Following drug delivery, stents were deployed at the delivery site such that final stent to artery ratio was 1.1:1.
QCA and IVUS analyses were used for stent deployment guidance. Pre-stenting IVUS measurements of the lumen size at the targeted vessel sites were performed for determination of the balloon (size) inflation pressure. Quantitative analysis of the stented coronary arteries to compare pre-stenting, post-stenting, follow-up minimal luminal diameters, stent recoil, and balloon/stent to artery ratio were performed. Following stent implantation and final angiogram, all devices were withdrawn and the wounds closed; the animals were allowed to recover from anesthesia as managed by the attending veterinarian or animal care professionals at the research center.
Upon return to the research laboratory at the 28-day endpoint, angiographic assessments were performed. Coronary artery blood flow was assessed and the stented vessels were evaluated to determine minimal lumen diameter. The animals were euthanized following this procedure at the endpoint. Following euthanasia, the hearts were pressure perfusion fixed with formalin and prepared for histological analysis, encompassing light microscopy, and morphometry. Morphometric analysis of the stented arteries included assessment of the position of the stent struts and determination of vessel/lumen areas, percent (%) stenosis, injury scores, intimal and medial areas and intima/media ratios. Percent stenosis is quantitated by the following equation: 100(IEL area−lumen area)/IEL area
where IEL is the internal elastic lamia.
The control group of animals received delivery of water instead of the drug. The test group of animals received actinomycin D in two different concentration of 10^−5M and 10^−4M. […] FIGS. 9A and 9B illustrate sample pictures of the histology slides of the coronary vessels from the control and the Dose 1 group, respectively.

[3] = test system: Medial smooth muscle cells (SMC); experiment: Inhibition of SMC proliferation, thymidine incorporation; format: cell-based; conditions: Rattus norvegicus, read-out: IC50 (concentration at which 50% of the cells stop proliferating)
Experimental: Medial smooth muscle cells (SMC) were isolated from rat aorta and cultured according to explant methods known to one of ordinary skill in the art. Cells were harvested via trypsinization and subcultivated. Cells were identified as vascular SMC through their characteristic hill-and-valley growth pattern as well as indirect immunofluorescence with monoclonal anti SMC α-actin. Studies were performed with cells at passage 3-4. SMC monolayers were established on 24 well culture dishes, scrape wounded and treated with actinomycin D, mytomycin and docetaxel. The cells were exposed to the drug solution of different concentrations for 2 hours and then washed with buffered saline solution. The proliferation of the cells was quantified by standard technique of thymidine incorporation.
The IC50 (concentration at which 50% of the cells stop proliferating) of actimomycin D was 10^−9M as compared to 5×10^−5M for mitomycin and 10^−6M for docetaxel.

[4] = test system: porcine coronary arteries; experiment: Positive remodeling: actinomycin D/EVOH coated stents in porcine coronary arteries, 28 days; format: in vivo
Text: In vivo data is provided illustrated positive remodeling caused by the application of actinomycin D. Stents coated with EVOH impregnated with actinomycin D and a control group of stents coated with EVOH free from actinomycin D were implanted in porcine coronary arteries. The animals were sacrificed at the end of 28 days. […] The index of remodeling was 1.076 (8.54/7.94).
FIGS. 10A and 10B illustrate sample pictures of the histology slides of the coronary vessels from the control group 64 RCA (Right Coronary […]) and the actinomycin D loaded stent group 68 LAD (Left Anterior Descending), respectively. The stent used was an Advanced Cardiovascular Systems Multi-Link Duet™ (stainless steel). As is illustrated by FIG. 10B, the positive remodeling of EEL 80, caused by the application of actinomycin D, creates a gap between stent struts 82 and EEL 80. Thrombus deposits, illustrated by reference number 84, are formed in the gap over time. The use of a self-expandable stent eliminates the formation of the gap as the stent self-expands in response to the positive remodeling of IEL. Thrombus deposits can be, accordingly, eliminated.
Actinomycin D induces the positive remodeling of the vessel walls, more particularly positive remodeling of the external elastic lamina (EEL) of a blood vessel wall. Positive remodeling is generally defined as the ability of the vessel walls to structurally adapt, by increasing in lumen size, to chronic stimuli. A positively remodeled lumen wall has a greater diameter or size as compared to a lumen wall which has not been subjected to the remodeling effect. Accordingly, the flow of blood through the remodeled site is increased—flow which would have otherwise been reduced because of, for example, the presence of plaque build-up or migration and proliferation of cells. The index of remodeling is defined by the ratio of the area circumscribed by the EEL of the lesion site to the area circumscribed by the EEL of a reference site. As a result of the positive remodeling of the EEL, the internal elastic lamina (IEL), in response, can also increases in area or diameter. Actinomycin D, or analogs or derivative thereof, not only can inhibit abnormal or inappropriate migration and/or proliferation of smooth muscle cells, which can lead to restenosis, but can also induce positive remodeling of the blood vessel walls. Thus the widening of the diseased region becomes more pronounced.

[5] = Sterilized stent, Time 0.5 Hours
[6] = Sterilized stent, Time 24 Hours
[7] = average of vessel sections, 28 days
[8] = individual vessel sections (ID # animal, artery, d/m/p), 28 days
[9] = 2 hours drug exposure, scrape wounded SMC monolayers, passage 3-4

μg Release ([1]; Sterilized (electron beam) stent, Time 0 Hours): 0 µg
Total μg Released ([1]; Sterilized stent, Time 0 Hours): 0 µg
μg Release per Hour ([1]; Sterilized stent, Time 0 Hours): 0 μg per Hour
Total μg Released [1, 5]: 2.14 µg
μg Release [1, 5]: 2.14 µg
μg Release per Hour [1, 5]: 4.28 μg per Hour
Total μg Released ([1]; Sterilized stent, Time 3 Hours): 3.84 µg
μg Release ([1]; Sterilized stent, Time 3 Hours): 1.7 µg
μg Release per Hour ([1]; Sterilized stent, Time 3 Hours): 0.68 μg per Hour
Total μg Released ([1]; Sterilized stent, Time 4 Hours): 4.12 µg
μg Release ([1]; Sterilized stent, Time 4 Hours): 0.28 µg
μg Release per Hour ([1]; Sterilized stent, Time 4 Hours): 0.28 μg per Hour
Total μg Released ([1]; Sterilized stent, Time 6 Hours): 4.38 µg
μg Release ([1]; Sterilized stent, Time 6 Hours): 0.26 µg
μg Release per Hour ([1]; Sterilized stent, Time 6 Hours): 0.13 μg per Hour
Total μg Released [1, 6]: 6.43 µg
μg Release [1, 6]: 2.05 µg
μg Release per Hour [1, 6]: 0.11 μg per Hour
Total microgram Released ([1]; Time 0 Hours): 0 microgram
microgram Release per Hour ([1]; Time 0 Hours): 0 microgram per Hour
microgram Released ([1]; Time 0 Hours, pH 7.4, room temperature): 0 microgram
Total microgram Released ([1]; Time 0.5 Hours): 2.12 microgram
microgram Release per Hour ([1]; Time 0.5 Hours): 4.24 microgram per Hour
microgram Released ([1]; Time 0.5 Hours): 2.12 microgram
Total microgram Released ([1]; Time 3 Hours): 4.03 microgram
microgram Release per Hour ([1]; Time 3 Hours): 0.76 microgram per Hour
microgram Released ([1]; Time 3 Hours): 1.91 microgram
Total microgram Released ([1]; Time 4 Hours): 4.30 microgram
microgram Release per Hour ([1]; Time 4 Hours): 0.27 microgram per Hour
microgram Released ([1]; Time 4 Hours): 0.27 microgram
Total microgram Released ([1]; Time 6 Hours): 4.68 microgram
microgram Release per Hour ([1]; Time 6 Hours): 0.19 microgram per Hour
microgram Released ([1]; Time 6 Hours): 0.38 microgram
Total microgram Released ([1]; Time 24 Hours): 6.38 microgram
microgram Release per Hour ([1]; Time 24 Hours): 0.09 microgram per Hour
microgram Released ([1]; Time 24 Hours): 1.7 microgram
Structure (SMILES): CC[C@]1(O)C[C@@H]2CN(CCc3c([nH]c4ccccc34)[C@@](C(=O)OC)(c3cc4c(cc3OC)N(C)[C@H]3[C@@](O)(C(=O)OC)[C@H](OC(C)=O)[C@]5(CC)C=CCN6CC[C@]43[C@@H]65)C2)C1 [Vinblastine]

Structure (SMILES): Cc1c2oc3c(C)ccc(C(=O)N[C@@H]4C(=O)N[C@H](C(C)C)C(=O)N5CCC[C@H]5C(=O)N(C)CC(=O)N(C)[C@@H](C(C)C)C(=O)O[C@@H]4C)c3nc-2c(C(=O)N[C@@H]2C(=O)N[C@H](C(C)C)C(=O)N3CCC[C@H]3C(=O)N(C)CC(=O)N(C)[C@@H](C(C)C)C(=O)O[C@@H]2C)c(N)c1=O [actinomycin D] (I: T[dV]P[Sar][NMeV] / II: T[dV]P[Sar][NMeV]; ester I:1-I:C, II:1-II:C; linker I:N-II:N via Actinocin(9to1))
Percent Diameter Stenosis (QCA) ([2]; DOSE 1 1E−05M (n = 10)): 36.8 +/− 9.7%
Percent Diameter Stenosis (QCA) ([2]; DOSE 2 1E−04M (n = 7)): 32.3+/−11.7%
Percent Stenosis (IEL area-lumen area)/IEL area ([2]; DOSE 1 1E−05M (n = 30)): 51.8 +/− 13.8%
Residual Lumen (Lumen area)/IEL area ([2]; DOSE 1 1E−05M (n = 30)): 0.49 +/− 0.14
Percent Stenosis (IEL area-lumen area)/IEL area ([2]; DOSE 2 1E−04M (n = 21)): 54.1 +/− 11.7%
Residual Lumen (Lumen area)/IEL area ([2]; DOSE 2 1E−04M (n = 21)): 0.46 +/− 0.08
IC50 ([3]; 2 h): 1 nM
AVG % EEL growth ([4]; ActD vs EVOH): 7.486%
AVG % IEL growth ([4]; ActD vs EVOH): 13.18%
index of remodeling ([4]; EEL area drug coated / EVOH control (8.54/7.94), 28 days): 1.076
EEL Area AVG [4, 7]: 8.5425 mm^2
IEL Area AVG [4, 7]: 7.4727 mm2
EEL Area [4, 8]: 9.2545 mm^2 and 9.2515 mm^2 and 8.7854 mm^2 and 9.5164 mm^2 and 9.1504 mm^2 and 9.6679 mm^2 and 9.1237 mm^2 and 9.9849 mm^2 and 9.4765 mm^2 and 7.4424 mm^2 and 9.1462 mm^2 and 8.9504 mm^2 and 8.9117 mm^2 and 8.7533 mm^2 and 7.3249 mm^2 and 7.1061 mm^2 and 8.5830 mm^2 and 7.4498 mm^2 and 8.2509 mm^2 and 7.7342 mm^2 and 7.9207 mm^2 and 6.9926 mm^2 and 8.3883 mm^2 and 7.8546 mm^2
IEL Area [4, 8]: 8.3785 mm2 and 8.5819 mm2 and 8.0964 mm2 and 8.6879 mm2 and 8.0914 mm2 and 8.7181 mm2 and 8.0273 mm2 and 8.5222 mm2 and 8.3796 mm2 and 6.4219 mm2 and 7.7757 mm2 and 7.5392 mm2 and 7.6573 mm2 and 6.9749 mm2 and 6.2815 mm2 and 5.9760 mm2 and 7.6195 mm2 and 6.3785 mm2 and 7.5206 mm2 and 6.9992 mm2 and 6.9632 mm2 and 6.0418 mm2 and 7.4794 mm2 and 6.2324 mm2

Structure (SMILES): CC(=O)O[C@@]12CO[C@@H]1C[C@H](O)[C@@]1(C)C(=O)[C@H](O)C3=C(C)[C@@H](OC(=O)[C@H](O)[C@@H](NC(=O)OC(C)(C)C)c4ccccc4)C[C@@](O)([C@@H](OC(=O)c4ccccc4)[C@H]21)C3(C)C [docetaxel]
IC50 [3, 9]: 1000 nM

Structure (SMILES): CO[C@@]12[C@H](COC(N)=O)C3=C(C(=O)C(C)=C(N)C3=O)N1C[C@@H]1N[C@@H]12 [mitomycin]
IC50 [3, 9]: 50000 nM
